Laboratory results published in patent US8084649B2, “Herbicides” (Syngenta Crop Protection, inc., priority 2007, dated 2011).

What was measured:
Assay type in all cases: in vivo
Lolium perenne (LOLPE) [1] = assay: Pre-emergence herbicidal activity, glasshouse pot test; settings: Lolium perenne, 480 h, rate 500 g/ha, evaluated after 20 days, read-out: Pre-emergence activity, LOLPE (100=total damage to plant; 0=no damage to plant)
Procedure: (§1) Monocotyledonous and dicotyledonous test plants were sown in sterilised standard soil in pots. After cultivation for one day (pre-emergence) or after 10 days cultivation (post-emergence) under controlled conditions in a glasshouse, the plants were sprayed with an aqueous spray solution derived from the formulation of the technical active ingredient in 0.6 ml acetone and 45 ml formulation solution containing 10.6% Emulsogen EL (Registry number 61791-12-6), 42.2% N-methylpyrrolidone, 42.2% dipropylene glycol monomethyl ether (Registry number 34590-94-8) and 0.2% X-77 (Registry number 11097-66-8). The test plants were then grown in a greenhouse under optimum conditions until, 14 or 15 days later for post-emergence and 20 days for pre-emergence, the test was evaluated (100=total damage to plant; 0=no damage to plant). Alopecurus myosuroides (ALOMY), Avena fatua (AVEFA), Lolium perenne (LOLPE), Setaria faberi (SETFA), Digitaria sanguinalis (DIGSA), Echinochloa crus-galli (ECHCG) Pre-Emergence Activity

[2] = test system: Echinochloa crus-galli (ECHCG); assay: as above; settings: Echinochloa crus-galli, 480 h, rate 500 g/ha, evaluated after 20 days, read-out: Pre-emergence activity, ECHCG (100=total damage to plant; 0=no damage to plant)
Procedure: as §1

Setaria faberi (SETFA) [3] = assay: as above; settings: Setaria faberi, 480 h, rate 500 g/ha, evaluated after 20 days, read-out: Pre-emergence activity, SETFA (100=total damage to plant; 0=no damage to plant)
Procedure: as §1

[4] = test system: Alopecurus myosuroides (ALOMY); assay: as above; settings: Alopecurus myosuroides, 480 h, rate 500 g/ha, evaluated after 20 days, read-out: Pre-emergence activity, ALOMY (100=total damage to plant; 0=no damage to plant)
Procedure: as §1

Avena fatua (AVEFA) [5] = assay: as above; settings: Avena fatua, 480 h, rate 500 g/ha, evaluated after 20 days, read-out: Pre-emergence activity, AVEFA (100=total damage to plant; 0=no damage to plant)
Procedure: as §1

Lolium perenne (LOLPE) [6] = assay: Post-emergence herbicidal activity, glasshouse pot test; settings: Lolium perenne, evaluated after 14 or 15 days, read-out: Post-emergence activity, LOLPE (100=total damage to plant; 0=no damage to plant); for pest or weed control at 125 g/ha: rate 125 g/ha
Procedure: as §1, with “Post-Emergence” for “Pre-Emergence”

[7] = test system: Echinochloa crus-galli (ECHCG); assay: as above; settings: Echinochloa crus-galli, evaluated after 14 or 15 days, read-out: Post-emergence activity, ECHCG (100=total damage to plant; 0=no damage to plant); for pest or weed control at 125 g/ha: rate 125 g/ha
Procedure: as §1, with “Post-Emergence” for “Pre-Emergence”

Setaria faberi (SETFA) [8] = assay: as above; settings: Setaria faberi, evaluated after 14 or 15 days, read-out: Post-emergence activity, SETFA (100=total damage to plant; 0=no damage to plant); for pest or weed control at 125 g/ha: rate 125 g/ha
Procedure: as §1, with “Post-Emergence” for “Pre-Emergence”

[9] = test system: Alopecurus myosuroides (ALOMY); assay: as above; settings: Alopecurus myosuroides, evaluated after 14 or 15 days, read-out: Post-emergence activity, ALOMY (100=total damage to plant; 0=no damage to plant); for pest or weed control at 125 g/ha: rate 125 g/ha
Procedure: as §1, with “Post-Emergence” for “Pre-Emergence”

Avena fatua (AVEFA) [10] = assay: as above; settings: Avena fatua, evaluated after 14 or 15 days, read-out: Post-emergence activity, AVEFA (100=total damage to plant; 0=no damage to plant); for pest or weed control at 125 g/ha: rate 125 g/ha
Procedure: as §1, with “Post-Emergence” for “Pre-Emergence”

[11] = test system: Digitaria sanguinalis (DIGSA); assay: as above; settings: Digitaria sanguinalis, evaluated after 14 or 15 days, read-out: Post-emergence activity, DIGSA (100=total damage to plant; 0=no damage to plant); for pest or weed control at 125 g/ha: rate 125 g/ha
Procedure: as §1, with “Post-Emergence” for “Pre-Emergence”

[12] = test system: Digitaria sanguinalis (DIGSA); assay: Pre-emergence herbicidal activity, glasshouse pot test; settings: Digitaria sanguinalis, 480 h, rate 500 g/ha, evaluated after 20 days, read-out: Pre-emergence activity, DIGSA (100=total damage to plant; 0=no damage to plant)
Procedure: as §1

## C=CCOC1=C(c2c(CC)cc(C)cc2CC)C(=O)CC2(CCOCC2)C1 [Compound P34]
Lolium perenne (LOLPE) [1]
  pest or weed control at 500 g/ha: 100%
[2]
  pest or weed control at 500 g/ha: 30%
Setaria faberi (SETFA) [3]
  pest or weed control at 500 g/ha: 30%
[4]
  pest or weed control at 500 g/ha: 100%
Avena fatua (AVEFA) [5]
  pest or weed control at 500 g/ha: 70%
Lolium perenne (LOLPE) [6]
  pest or weed control at 125 g/ha: 0%
[7]
  pest or weed control at 125 g/ha: 0%
Setaria faberi (SETFA) [8]
  pest or weed control at 125 g/ha: 0%
[9]
  pest or weed control at 125 g/ha: 0%
Avena fatua (AVEFA) [10]
  pest or weed control at 125 g/ha: 0%
[11]
  pest or weed control at 125 g/ha: 30%

## CCOCOC1=C(c2c(CC)cc(C)cc2CC)C(=O)CC2(CCOCC2)C1 [Compound P35]
Lolium perenne (LOLPE) [1]
  pest or weed control at 500 g/ha: 100%
Setaria faberi (SETFA) [3]
  pest or weed control at 500 g/ha: 100%
[4]
  pest or weed control at 500 g/ha: 100%
Avena fatua (AVEFA) [5]
  pest or weed control at 500 g/ha: 100%
Lolium perenne (LOLPE) [6]
  pest or weed control at 125 g/ha: 90%
[7]
  pest or weed control at 125 g/ha: 100%
Setaria faberi (SETFA) [8]
  pest or weed control at 125 g/ha: 50%
[9]
  pest or weed control at 125 g/ha: 100%
Avena fatua (AVEFA) [10]
  pest or weed control at 125 g/ha: 100%
[11]
  pest or weed control at 125 g/ha: 50%

## CCCOC1=C(c2c(CC)cc(C)cc2CC)C(=O)CC2(CCOCC2)C1 [Compound P41]
Lolium perenne (LOLPE) [1]
  pest or weed control at 500 g/ha: 0%
[2]
  pest or weed control at 500 g/ha: 40%
Setaria faberi (SETFA) [3]
  pest or weed control at 500 g/ha: 10%
[4]
  pest or weed control at 500 g/ha: 70%
Avena fatua (AVEFA) [5]
  pest or weed control at 500 g/ha: 10%
[12]
  pest or weed control at 500 g/ha: 90%
Lolium perenne (LOLPE) [6]
  pest or weed control at 125 g/ha: 0%
Setaria faberi (SETFA) [8]
  pest or weed control at 125 g/ha: 0%
[9]
  pest or weed control at 125 g/ha: 10%
Avena fatua (AVEFA) [10]
  pest or weed control at 125 g/ha: 10%
[11]
  pest or weed control at 125 g/ha: 50%

## CCCCCCCCCCCCCC(=O)OC1=C(c2c(CC)cc(C)cc2CC)C(=O)CC2(CCOCC2)C1 [Compound P42]
Lolium perenne (LOLPE) [1]
  pest or weed control at 500 g/ha: 100%
[2]
  pest or weed control at 500 g/ha: 100%
[4]
  pest or weed control at 500 g/ha: 100%
Avena fatua (AVEFA) [5]
  pest or weed control at 500 g/ha: 90%
Lolium perenne (LOLPE) [6]
  pest or weed control at 125 g/ha: 50%
[7]
  pest or weed control at 125 g/ha: 30%
Setaria faberi (SETFA) [8]
  pest or weed control at 125 g/ha: 50%
[9]
  pest or weed control at 125 g/ha: 60%
Avena fatua (AVEFA) [10]
  pest or weed control at 125 g/ha: 40%
[11]
  pest or weed control at 125 g/ha: 30%

## CCCCCCCCCC(=O)OC1=C(c2c(CC)cc(C)cc2CC)C(=O)CC2(CCOCC2)C1 [Compound P43]
Lolium perenne (LOLPE) [1]
  pest or weed control at 500 g/ha: 100%
[2]
  pest or weed control at 500 g/ha: 100%
[4]
  pest or weed control at 500 g/ha: 100%
Avena fatua (AVEFA) [5]
  pest or weed control at 500 g/ha: 100%
Lolium perenne (LOLPE) [6]
  pest or weed control at 125 g/ha: 80%
[7]
  pest or weed control at 125 g/ha: 70%
Setaria faberi (SETFA) [8]
  pest or weed control at 125 g/ha: 70%
[9]
  pest or weed control at 125 g/ha: 100%
Avena fatua (AVEFA) [10]
  pest or weed control at 125 g/ha: 100%
[11]
  pest or weed control at 125 g/ha: 70%

## CCc1cc(C)cc(CC)c1C1=C(O)CC(C2CCCO2)CC1=O (stereo not drawn) [Compound T8]
Lolium perenne (LOLPE) [1]
  pest or weed control at 500 g/ha: 100%
[2]
  pest or weed control at 500 g/ha: 100%
Setaria faberi (SETFA) [3]
  pest or weed control at 500 g/ha: 100%
[4]
  pest or weed control at 500 g/ha: 100%
Avena fatua (AVEFA) [5]
  pest or weed control at 500 g/ha: 80%
Lolium perenne (LOLPE) [6]; rate 500 g/ha
  pest or weed control at 500 g/ha: 100%
[7]; rate 500 g/ha
  pest or weed control at 500 g/ha: 100%
Setaria faberi (SETFA) [8]; rate 500 g/ha
  pest or weed control at 500 g/ha: 90%
[9]; rate 500 g/ha
  pest or weed control at 500 g/ha: 100%
Avena fatua (AVEFA) [10]; rate 500 g/ha
  pest or weed control at 500 g/ha: 90%
[11]; rate 500 g/ha
  pest or weed control at 500 g/ha: 90%
